Source: PubChem BioAssay (NCI)
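Tested at 5 concentrations; 48 h exposure; 96-well plates; endpoints linearly interpolated, else capped at highest concentration. GI50 = concentration required for 50% inhibition of growth. The concentration for full growth arrest is given as TGI.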

Assays:
Experiment in all cases: NCI anticancer screen, dose series, 48 h
OVCAR-4 ovarian = tested on: OVCAR-4 ovarian
NCI-H522 lung = tested on: NCI-H522 lung
NCI-H226 lung = tested on: NCI-H226 lung
HCT-116 colon = tested on: HCT-116 colon
ACHN renal = tested on: ACHN renal
NCI-H23 lung = tested on: NCI-H23 lung
LOX IMVI melanoma = tested on: LOX IMVI melanoma
EKVX NSCLC = tested on: EKVX NSCLC
TK-10 renal = tested on: TK-10 renal
MALME-3M melanoma = tested on: MALME-3M melanoma

Row | SMILES | TGI (OVCAR-4 ovarian) | TGI (NCI-H522 lung) | TGI (NCI-H226 lung) | TGI (HCT-116 colon) | TGI (ACHN renal) | TGI (NCI-H23 lung) | TGI (LOX IMVI melanoma) | TGI (EKVX NSCLC) | TGI (TK-10 renal) | TGI (MALME-3M melanoma) | GI50 (OVCAR-4 ovarian) | GI50 (NCI-H522 lung) | GI50 (NCI-H226 lung) | GI50 (ACHN renal) | GI50 (NCI-H23 lung) | GI50 (LOX IMVI melanoma) | GI50 (TK-10 renal) | GI50 (MALME-3M melanoma) | GI50 (EKVX NSCLC)
1 | Cc1ccc2c(c1)nc(N)n[n+]2[O-] | > 100 µM | > 100 µM | > 100 µM | > 100 µM | > 100 µM | > 100 µM | > 100 µM | > 100 µM | > 100 µM | – | – | – | – | – | – | – | – | – | –
2 | COc1cc2oc(-c3ccc(O)cc3)c(OC3OC(C)C(O)C(O)C3O)c(=O)c2c(O)c1OC (stereo not drawn) | > 100 µM | > 100 µM | > 100 µM | > 100 µM | > 100 µM | > 100 µM | > 100 µM | > 100 µM | > 100 µM | > 100 µM | – | – | – | – | – | – | – | – | –
3 | C/C(=N\NC(=S)NC(C)C)c1nc2ncccc2[nH]1 | > 100 µM | > 76.3 µM | 51.3 µM | > 100 µM | > 100 µM | – | > 100 µM | > 69.7 µM | 73.8 µM | > 100 µM | – | – | – | – | – | – | – | – | –
4 | CCC(=O)C(c1ccccc1)c1ccccn1 (stereo not drawn) | > 100 µM | > 100 µM | > 100 µM | > 100 µM | > 100 µM | > 100 µM | > 100 µM | > 100 µM | > 100 µM | > 100 µM | – | – | – | – | – | – | – | – | –
5 | Cc1[nH]c(/C=C2\C(=O)Nc3ccc(S(=O)(=O)Cc4c(Cl)cccc4Cl)cc32)c(C)c1C(=O)N1CCC[C@@H]1CN1CCCC1 | 70.7 µM | 47.7 µM | 54.8 µM | – | 3.07 µM | 12.3 µM | 3.22 µM | – | 3.85 µM | – | 26.1 µM | 19.7 µM | 15.1 µM | 1.63 µM | 4.38 µM | 1.73 µM | 1.92 µM | – | –
6 | COC1OC(=O)[C@H]2O[N+]([O-])=C(C)[C@@H]12 (stereo partly drawn) | > 100 µM | > 100 µM | > 100 µM | > 100 µM | – | > 100 µM | > 100 µM | > 100 µM | – | > 100 µM | – | – | – | – | – | – | – | – | –
7 | OCC1CCCC(n2cnc3c(=S)nc[nH]c32)O1 (stereo not drawn) | > 100 µM | > 100 µM | > 100 µM | > 100 µM | > 100 µM | > 100 µM | > 100 µM | > 100 µM | > 100 µM | > 100 µM | – | – | – | – | – | – | – | – | –
8 | C=CC(=O)Nc1cccc(-c2nc(SC)nc(Nc3ccccc3OC)c2C#N)c1 | – | 6.53 µM | 36.1 µM | – | 3.32 µM | 5.99 µM | – | 10.4 µM | 4.02 µM | 3.44 µM | – | 2.04 µM | 9.7 µM | 1.7 µM | 2.15 µM | – | 1.99 µM | 1.54 µM | 2.71 µM
9 | O=C(O)c1ccc(NC(c2ccccc2)c2ccc3cccnc3c2O)cc1 (stereo not drawn) | 36.6 µM | 55.8 µM | > 31 µM | > 100 µM | > 100 µM | > 100 µM | > 57.6 µM | > 85.6 µM | 71.6 µM | > 100 µM | – | – | – | – | – | – | – | – | –
10 | N#Cc1c(NC(=S)NC(=O)c2ccccc2)nc2c(c1-c1ccccc1)CCC2 | > 100 µM | – | – | > 100 µM | > 100 µM | > 100 µM | > 100 µM | > 100 µM | > 100 µM | > 100 µM | – | – | – | – | – | – | – | – | –
11 | Nc1n[nH]c(=O)[nH]1 | > 100 µM | > 100 µM | > 100 µM | > 100 µM | – | > 100 µM | > 100 µM | > 100 µM | – | > 100 µM | – | – | – | – | – | – | – | – | –
12 | O=C(Nc1ccc(I)cc1C(=O)NCCO)c1cccs1 | > 100 µM | > 100 µM | > 100 µM | > 100 µM | > 100 µM | > 100 µM | > 100 µM | > 100 µM | – | – | – | – | – | – | – | – | – | – | –
